Measurements taken from US6087376A (priority 1998, dated 2000).

What was measured:
[1] = system: nicotine-evoked [3H]dopamine release from rat striatal slices; nicotinic receptors; test: Lobeline inhibition of nicotine-evoked [3H]DA release from rat striatal slices; format: cell-based; conditions: low concentrations
Protocol: Striatal slices were obtained from rat brain, preincubated with [^3 H]dopamine (0.1 μM) for 30 min and subsequently superfused with Kreb's buffer for 60 min.

[2] = system: rat striatal slices; test: Endogenous DA and DOPAC content in striatal slices following superfusion with lobeline; format: cell-based
Protocol: Data are presented as mean±S.E. ng/mg protein. *P<0.05, different from control, P<0.05, **P<0.001, different from control; Dunnett's post hoc test. n=8 rats.
At the end of the superfusion experiment, slices were processed in the endogenous DA and DOPAC content assay described below.
An aliquot (500 μL) of 0.1 M perchloric acid (pH 1.0) containing 0.14-0.29 μM 3,4-dihydroxybenzylamine hydrobromide (DHBA, internal standard) was added to 100 mg of striatum and the mixture was sonicated with an Ultrasonic Processor (40-Watt Model, Sonics & Materials, Danbury, Conn.). The homogenate was centrifuged at 30,000×g for 10 min at 4° C., and the supernatant was filtered (0.2 μm nylon membrane). An aliquot (50 μL) of the filtrate (1:1, 1:50, 1:100, 1:200 or 1:500 dilution with 0.1 M perchloric acid) was injected onto the high pressure liquid chromatograph with electrochemical detection (HPLC-EC) system. The HPLC-EC system consisted of syringe loading injector (Model 7725, Rheodyne L. P., Cotati, Calif.), Beckman Model 116 HPLC pump (Beckman, Fullerton, Calif.), ESA ODS ultrasphere C18 reverse-phase column ([…]×75 mm, 3 micron particle size, ESA, Bedford, Mass.), and an ESA 5100A coulometric electrochemical detector with a model 5011 detector cell (E1=+0.05 V, E2=+0.32 V). The eluent was 6% acetonitrile, 10 μM EDTA, 1.4 mM 1-octane-sulfonic acid and 76 mM sodium phosphate monobasic (pH 3.1). All separations were performed at room temperature at a flow rate of 1 ml/min. Complete separation of DA and DOPAC and reequilibration of the system required 9 min. The retention time of DA, DOPAC and DHBA standards was used to identify the relevant peak. Peak heights were used to calculate the detected amount of compound based on standard curves. The detection limit of DA and DOPAC was 0.2 and 0.05 pg/50 μL injected, respectively. Recovery of internal standard was routinely 75%.

[3] = system: monoamine oxidase; conditions: cited from earlier work
[4] = system: learning and memory; conditions: in vivo; cited from earlier work

## CN1[C@@H](CC(=O)c2ccccc2)CCC[C@H]1C[C@H](O)c1ccccc1 [Lobeline, 2-[G-(β-hydroxyphenethyl)-1-methyl-2-piperidyl]-acetophenone]
[1]
  concentrations inhibiting nicotine-evoked DA release: 0.1 to 1 µM
[2]
  DOPAC overflow from rat striatal slices: DOPAC overflow from rat striatal slices is observed
[2]; lobeline 0.1-10 μM, 60 min
  effect on DA or DOPAC content in superfused slices: did not alter DA or DOPAC content
[2]; lobeline 30-100 μM, 60 min
  effect on endogenous DA content in superfused slices: significantly depleted endogenous DA content
  effect on endogenous DOPAC content in superfused slices: increased DOPAC content
[3]
  inhibition of monoamine oxidase: does not inhibit monoamine oxidase
[4]
  learning and memory: improvement of learning and memory
